Literature values as cited in patent publication US20240366601A1, “METHODS FOR TREATING TRAUMATIC BRAIN INJURY” (The Regents of the University of California, priority 2021, published 2024).

Columns and labels:
CDK4 = CDK4 (Homo sapiens, UniProt P11802); conditions: for CDK4; read-out: in vitro IC50 (nM) in cell-free assays
[1] = FDA-approved doses for cancer treatments; list continues over the following table lines

Chain of CDK4 (P11802 whole entry): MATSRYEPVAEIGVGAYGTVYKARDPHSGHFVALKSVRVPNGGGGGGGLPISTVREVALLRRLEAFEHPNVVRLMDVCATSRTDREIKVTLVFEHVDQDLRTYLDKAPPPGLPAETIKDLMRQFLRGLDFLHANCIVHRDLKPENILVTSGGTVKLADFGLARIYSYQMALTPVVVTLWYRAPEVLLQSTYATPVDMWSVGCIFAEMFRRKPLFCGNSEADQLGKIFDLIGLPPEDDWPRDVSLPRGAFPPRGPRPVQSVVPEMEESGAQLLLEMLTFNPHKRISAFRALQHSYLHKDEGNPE
Chain of CDK4 (P24385 whole entry partner): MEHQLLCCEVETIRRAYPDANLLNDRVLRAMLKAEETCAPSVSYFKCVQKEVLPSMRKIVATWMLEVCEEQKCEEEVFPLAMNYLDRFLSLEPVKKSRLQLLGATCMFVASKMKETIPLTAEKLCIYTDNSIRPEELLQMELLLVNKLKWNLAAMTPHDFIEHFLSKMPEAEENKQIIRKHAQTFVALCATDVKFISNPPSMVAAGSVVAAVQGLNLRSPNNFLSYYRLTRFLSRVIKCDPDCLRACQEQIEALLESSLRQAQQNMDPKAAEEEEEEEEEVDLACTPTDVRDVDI

CN1CCN(c2ccc(Nc3ncc4cc(C#N)c(=O)n(C5CCCC5)c4n3)cc2)CC1 [ON123300]
IC50 (CDK4): 3.9 nM

CCN1CCN(Cc2ccc(Nc3ncc(F)c(-c4cc(F)c5nc(C)n(C(C)C)c5c4)n3)nc2)CC1 [abemaciclib]
Common Side effects at FDA-approved doses (Medline Plus) [1]: diarrhea, nausea, abdominal pain, infections, tiredness, anemia, leukopenia,

CN(C)C(=O)c1cc2cnc(Nc3ccc(N4CCNCC4)cn3)nc2n1C1CCCC1 [ribociclib]
Common Side effects at FDA-approved doses (Medline Plus) [1]: diarrhea; constipation; stomach pain; headache; hair loss; back pain; itching;
